Reference: patent US5674905A, “Bicyclooctane and bicycloheptane derivatives” (James Black Foundation Limited, priority 1992, dated 1997)

How the values were obtained:
CCKB receptor = molecular target: T1, CCKB receptor (Mus musculus, UniProt P56481); assay: radioligand binding assay at the CCKB receptor in mouse cortical membranes ([125I]-CCK8S); conditions: 150 min at 21±3°; for Ki: read-out: CCKB pKi (converted)
T1 construct: The cortex was dissected, weighed and homogenised in 40 ml ice-cold buffer; from tissue; host or cells: cerebral cortex membranes of male CD1 mice (Charles River)
T1 sequence (P56481 1-453): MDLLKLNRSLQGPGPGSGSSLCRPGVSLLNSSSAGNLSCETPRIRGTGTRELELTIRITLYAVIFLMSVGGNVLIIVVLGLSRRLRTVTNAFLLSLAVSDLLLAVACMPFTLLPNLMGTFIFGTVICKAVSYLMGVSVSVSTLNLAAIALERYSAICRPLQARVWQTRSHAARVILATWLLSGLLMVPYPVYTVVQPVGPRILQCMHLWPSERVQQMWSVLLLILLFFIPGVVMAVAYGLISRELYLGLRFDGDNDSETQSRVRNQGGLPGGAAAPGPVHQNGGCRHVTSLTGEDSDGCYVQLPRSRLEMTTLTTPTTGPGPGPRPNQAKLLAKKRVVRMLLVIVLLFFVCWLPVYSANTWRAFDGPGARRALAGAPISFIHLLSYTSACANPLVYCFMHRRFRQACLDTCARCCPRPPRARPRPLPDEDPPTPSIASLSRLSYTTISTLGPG
Experimental: The compounds of the examples were tested for binding at the CCKB receptor in mouse cortical membranes by means of a radioligand binding assay. The procedure was as follows:
The whole brains from male mice (CD1 22-25 g; Charles River) were removed and placed in ice-cold buffer (pH7.2 @ 21±3 °) of the following composition (mM); 10 HEPES, 130 NaCl, 4.7 KCl, 5 MgCl2, 1 EDTA and containing 0.25 g.1^-1 bacitracin. The cortex was dissected, weighed and homogenised in 40 ml ice-cold buffer using a Teflon-in-glass homogeniser. The homogenate was centrifuged at 39,800 g for 20 min at @ 4°, the supernatant discarded and the pellet resuspended by homogenisation in fresh buffer. The homogenate was recentrifuged (39,800 g; 20 min @4°) and the final pellet was resuspended in HEPES buffer to give a tissue concentration of 2 mg.ml^-1 (original wet weight).
The membranes ([…]) were incubated for 150 min at 21±3° in a final volume of 0.5 ml with HEPES buffer containing [^125 I]-CCK8S (0.05 ml; 200 pM NEN 2200 Ci.mmol^-1) and competing compound. Total and non-specific binding of [^125 I]-CCK8S were defined using 0.05 ml of buffer and 0.05 ml of […] L-365,260, respectively. The assay was terminated by rapid filtration through pre-soaked Whatman GF/B filters using a Brandell Cell harvester. The filters were washed (3×3 ml) with ice-cold 50 mM Tris-HC1 (pH7.4 @ 4° C.) and bound radioactivity determined by counting (1 min.) in a gamma-counter.

CCKA = molecular target: T2, CCKA (Cavia porcellus, UniProt Q63931); assay: CCKA binding assay in guinea-pig pancreas membranes ([125I]-CCK8(S)); conditions: 150 minutes at 21±3°, 0.375 μM PD134,308, read-out: CCKA pKi (converted)
T2 construct: The pancreatata were removed from male guinea-pigs (200-300 g; Dunkin Hartley); from tissue; host or cells: pancreas membranes of male Dunkin Hartley guinea-pigs
T2 sequence (Q63931 1-430): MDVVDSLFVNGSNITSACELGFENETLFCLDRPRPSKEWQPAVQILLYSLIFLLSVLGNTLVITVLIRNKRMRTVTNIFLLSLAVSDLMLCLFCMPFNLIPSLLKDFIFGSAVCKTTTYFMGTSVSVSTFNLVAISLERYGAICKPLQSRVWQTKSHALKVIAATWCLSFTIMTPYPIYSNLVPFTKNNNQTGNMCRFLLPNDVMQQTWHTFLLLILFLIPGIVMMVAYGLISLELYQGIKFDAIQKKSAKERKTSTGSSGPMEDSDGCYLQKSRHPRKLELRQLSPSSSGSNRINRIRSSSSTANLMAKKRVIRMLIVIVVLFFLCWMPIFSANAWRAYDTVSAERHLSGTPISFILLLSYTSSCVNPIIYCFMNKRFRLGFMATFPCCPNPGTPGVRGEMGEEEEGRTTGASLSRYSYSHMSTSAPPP
Experimental: The compounds of the examples were also tested in a CCKA binding assay as follows:
The pancreatata were removed from male guinea-pigs (200-300 g; Dunkin Hartley) and placed in ice-cold HEPES buffer (pH 7.2 @ 21±3°). The pancreatata were homogenised in 40 ml ice-cold HEPES buffer using a polytron (Brinkmann, PT10, setting 10) 4×1 second. The homogenate was centrifuged at 39,800 g for 15 min at 4°. The supernatant was discarded and the pellet re-suspended using a Teflon-in-glass homogeniser in 20 volumes of fresh buffer and re-centrifuged as above. The final pellet was re-suspended using a Teflon-in-glass homogeniser to a tissue concentration of 1 mg.ml^-1 (original wet weight), and filtered through 500 μm pore-size Nytex mesh.
The membranes (400 μl; containing 0.375 μM PD134,308) are incubated for 150 minutes at 21±3° in a final volume of 0.5 ml with HEPES buffer containing [^125 I]-CCK8 (S)(50 μl; pM) and competing compound. Total and non-specific binding of [^125 I]-CCK8 (S) are defined using 50 μl of buffer and 50 μl of 100 nM L-364,718 respectively. The assay is terminated by rapid filtration through pre-soaked Whatman GF/B filters using a Brandell Cell Harvester. The filters were washed (3×3 ml) with ice-cold 50 mM Tris HCl (pH 7.4 at 4°) and bound radioactivity is determined by counting (1 min) in a gamma counter.

gastrin receptors = molecular target: T3, gastrin receptors (Rattus norvegicus, UniProt P30553); assay: gastrin antagonist activity in an immature rat stomach assay (pentagastrin-stimulated acid secretion); conditions: isolated immature rat stomach, cumulative pentagastrin dose-response curves; for Kb: read-out: Gastrin pKB (converted)
T3 construct: from tissue; host or cells: isolated perfused whole stomach of immature rats (33-50 g, ca. 21 days old)
T3 sequence (P30553 1-452): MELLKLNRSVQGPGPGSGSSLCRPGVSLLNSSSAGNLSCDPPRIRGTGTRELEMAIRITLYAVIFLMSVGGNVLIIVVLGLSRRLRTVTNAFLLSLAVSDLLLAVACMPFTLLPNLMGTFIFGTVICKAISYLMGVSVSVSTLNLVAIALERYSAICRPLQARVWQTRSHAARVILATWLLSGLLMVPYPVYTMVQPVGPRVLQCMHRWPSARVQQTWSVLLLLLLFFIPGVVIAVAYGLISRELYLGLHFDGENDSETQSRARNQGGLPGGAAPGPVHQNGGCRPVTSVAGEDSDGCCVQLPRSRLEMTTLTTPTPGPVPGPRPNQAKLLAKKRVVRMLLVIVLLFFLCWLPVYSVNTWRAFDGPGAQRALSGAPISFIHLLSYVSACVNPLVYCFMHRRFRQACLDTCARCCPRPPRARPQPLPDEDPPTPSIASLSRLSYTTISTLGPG
Experimental: The compounds of the examples were also tested for gastrin antagonist activity in an immature rat stomach assay. The procedure was as follows:
The oesophagus of immature rats (33-50 g, ca. 21 days old) was ligated at the level of the cardiac sphincter and the duodenal sphincter was cannulated. The stomach was excised and flushed with ca. 1 ml of unbuffered physiological saline solution. The fundus was punctured and cannulated. A further 4-5 ml of unbuffered solution was flushed through the stomach to ensure the preparation was not leaking. The stomach was lowered into a jacketed organ bath containing 40 ml of buffered solution containing 3×10^-8 M 5-methyl-furmethide, maintained at 37° and gassed vigorously with 95% O2 /5% CO2. The stomach was continuously perfused at a rate of 1 ml min^-1 with unbuffered solution gassed with 100% O2 with the perfusate passing over an internally referenced pH-electrode fixed 12 cm above the stomach.
After 120 min of stabilisation the drugs were added directly to the serosal solution in the organ bath and after a further 60 min cumulative pentagastrin dose-response curves were started. Changes in acid secretion were monitored and the curves analysed according to Black et. al., Br. J. Pharmacol., 1985, 86, 581.

| SMILES | Ki (CCKB receptor) [µM] | Ki (CCKA) [µM] | Kb (gastrin receptors) [µM] | CCKB pKi (CCKB receptor) | Gastrin pKB (gastrin receptors; 60 min) |
| --- | --- | --- | --- | --- | --- |
| COC(=O)[C@H](C)NC(=O)C1C2CCC(c3ccccc32)C1C(=O)NCC12CC3CC(CC(C3)C1)C2 (stereo partly drawn) [Example 22, endo-cis-7-(1-S-Methoxycarbonyl-ethylaminocarbonyl)-8-(1-adamantylmethylaminocarbonyl)-2,3-benzobicyclo[2.2.2]octane] | 0.631 | – | 0.2 | – | – |
| COC(=O)[C@H](C)NC(=O)C1C2CCC(c3ccccc32)C1C(=O)NCC12CC3CC(CC(C3)C1)C2 (stereo partly drawn) [Example 23, exo-cis-7-(1-S-Methoxycarbonyl-ethylaminocarbonyl)-8-(1-adamantylmethylaminocarbonyl)-2,3-benzobicyclo[2.2.2]octane] | 0.398 | – | 0.316 | – | – |
| COC(=O)[C@H](C)NC(=O)C1C2C=CC(CC2)C1C(=O)NCC12CC3CC(CC(C3)C1)C2 (stereo partly drawn) [Example 24, endo-cis-2-(1-S-Methoxycarbonyl-ethylaminocarbonyl)-3-(1-adamantylmethylaminocarbonyl)-bicyclo[2.2.2]oct-5-ene] | 10 | – | 1.26 | – | – |
| O=C(NCC12CC3CC(CC(C3)C1)C2)C1C2C=CC(c3ccccc32)C1C(=O)N1C[C@H](O)C[C@@H]1C(=O)O (stereo partly drawn) [Example 29, exo-cis-7-(2-R-carboxy-4-R-hydroxy-pyrrolidinocarbonyl)-8-(1-adamantylmethylaminocarbonyl)-5,6-benzo-bicyclo[2.2.2]oct-2-ene] | 2.51 | – | 2 | – | – |
| COC(=O)[C@@H]1CCCN1C(=O)C1C2C=CC(c3ccccc32)C1C(=O)NCC12CC3CC(CC(C3)C1)C2 (stereo partly drawn) [Example 30, endo-cis-7-(2-S-methoxycarbonyl-pyrrolidinocarbonyl)-8-(1-adamantylmethylaminocarbonyl)-5,6-benzo-bicyclo[2.2.2]oct-2-ene] | 0.501 | – | 0.398 | – | – |
| O=C(O)c1cc(NC(=O)[C@H](Cc2ccccc2)NC(=O)C2C3C=CC(c4ccccc43)C2C(=O)NCC23CC4CC(CC(C4)C2)C3)cc(C(=O)O)c1 (stereo partly drawn) [Example 60, exo-cis-7-(1S-(3,5-dicarboxyphenylaminocarbonyl)-2-phenyl-ethylaminocarbonyl)-8-(1-adamantylmethylaminocarbonyl)-5,6-benzobicyclo[2.2.2]oct-2-ene] | 0.316 | – | 0.0501 | – | – |
| O=C(O)c1cc(NC(=O)[C@H](Cc2ccccc2)NC(=O)C2C3CCC(c4ccccc43)C2C(=O)NCC23CC4CC(CC(C4)C2)C3)cc(C(=O)O)c1 (stereo partly drawn) [Example 61, exo-cis-7-(1S-(3,5-dicarboxyphenylaminocarbonyl)-2-phenyl-ethylaminocarbonyl)-8-(1-adamantylmethylaminocarbonyl)-2,3-benzobicyclo[2.2.2]octane] | 1 | – | 0.251 | – | – |

The remaining lines, values ahead:

| Ki (CCKB receptor) [µM] | Ki (CCKA) [µM] | Kb (gastrin receptors) [µM] | CCKB pKi (CCKB receptor) | Gastrin pKB (gastrin receptors; 60 min) | SMILES |
| --- | --- | --- | --- | --- | --- |
| 6.31 | 7.94 | – | – | – | O=C1CC2c3ccccc3C1C(C(=O)N1CCC[C@@H]1C(=O)O)C2C(=O)NCC12CC3CC(CC(C3)C1)C2 (single isomer, unassigned) [Example 34, endo-cis-7-(2-R-carboxy-pyrrolidinocarbonyl)-8-(1-adamantylmethylaminocarbonyl)-2-oxo-5,6-benzobicyclo[2.2.2]octane] |
| 3.16 | – | 1.26 | – | – | O=C(NCC12CC3CC(CC(C3)C1)C2)C1C2C=CC(c3ccccc32)C1C(=O)N1CCC[C@H]1C(=O)O (stereo partly drawn) [Example 26, endo-cis-7-(2-S-carboxy-pyrrolidinocarbonyl)-8-(1-adamantylmethylaminocarbonyl)-5,6-benzo-bicyclo[2.2.2]oct-2-ene] |
| – | – | – | 6.2 | 6.5 | O=C(NCC12CC3CC(CC(C3)C1)C2)C1C2C=CC(c3ccccc32)C1C(=O)N1CCC[C@H]1C(=O)O (stereo partly drawn) [Example 27, exo-cis-7-(2-S-carboxy-pyrrolidinocarbonyl)-8-(1-adamantylmethylaminocarbonyl)-5,6-benzo-bicyclo[2.2.2]oct-2-ene] |
| 5.01 | 7.94 | – | – | – | C[C@@H](NC(=O)[C@H]1CCCN1C(=O)C1C2CCC(c3ccccc32)C1C(=O)NCC12CC3CC(CC(C3)C1)C2)C(=O)O (stereo partly drawn) [Example 41, cis-exo-7-(2R-(1R-carboxyethylaminocarbonyl)-pyrrolidinocarbonyl)-8-(1-adamantylmethylaminocarbonyl)-2,3-benzobicyclo[2.2.2]octane] |
| 3.98 | 6.31 | – | – | – | O=C(O)CNC(=O)[C@H]1CCCN1C(=O)C1C2CCC(c3ccccc32)C1C(=O)NCC12CC3CC(CC(C3)C1)C2 (stereo partly drawn) [Example 42, cis-exo-7-(2R-carboxymethylaminocarbonyl-pyrrolidinocarbonyl)-8-(1-adamantylmethylaminocarbonyl)-2,3-benzobicyclo[2.2.2]octane] |
